Experimental data as given in ChEMBL document CHEMBL1135358, “Antifungal sordarins. Synthesis and structure-activity relationships of 3'-O-substituted derivatives” (2002).
≈ marks a conversion by molar mass, not a printed value.

What was measured:
Type in all cases: functional
[1] = system: Candida albicans; assay: In vitro Minimum inhibitory concentration (MIC) for antifungal activity against Candida albicans 1208
[2] = system: Candida albicans; assay: In vitro Minimum inhibitory concentration (MIC) for antifungal activity against Candida albicans 2005
[3] = system: Candida albicans; assay: In vitro Minimum inhibitory concentration (MIC) for antifungal activity against Candida albicans 2402
[4] = system: Candida tropicalis; assay: In vitro Minimum inhibitory concentration (MIC) for antifungal activity against Candida tropicalis 2808
[5] = system: Cryptococcus neoformans; assay: In vitro Minimum inhibitory concentration (MIC) for antifungal activity against Cryptococcus neoformans 2867
[6] = system: Kluyveromyces marxianus; assay: In vitro Minimum inhibitory concentration (MIC) for antifungal activity against Candida pseudotropicalis 2371
[7] = system: Kluyveromyces marxianus; assay: In vitro Minimum inhibitory concentration (MIC) for antifungal activity against Candida pseudotropicalis 2371E
[8] = system: Candida tropicalis; assay: In vitro Minimum inhibitory concentration (MIC) for antifungal activity against Candida tropicalis 2808E
[9] = system: Candida albicans; assay: In vitro Minimum inhibitory concentration (MIC) for antifungal activity against Candida albicans 1208E
[10] = system: Cryptococcus neoformans; assay: In vitro Minimum inhibitory concentration (MIC) for antifungal activity against Cryptococcus neoformans 2867E
[11] = system: Candida albicans; assay: In vitro Minimum inhibitory concentration (MIC) for antifungal activity against Candida albicans 2005E
[12] = system: Candida albicans; assay: In vitro Minimum inhibitory concentration (MIC) for antifungal activity against Candida albicans 2402E

Structure (SMILES) | MIC [1] | MIC [2] | MIC [3] | MIC [4] | MIC [5] | MIC [6] | MIC [7] | MIC [8] | MIC [9] | MIC [10] | MIC [11] | MIC [12]
CCCCCCCCNC(=O)O[C@H]1C(O)[C@H](OCC23C[C@@H]4[C@H](C)CC[C@H]4C4(C=O)CC2C=C(C(C)C)C34C(=O)O)O[C@H](C)[C@H]1OC (some centres undefined) | 4 µg/mL (≈ 6.17 µM) | 0.06 µg/mL (≈ 0.0926 µM) | 2 µg/mL (≈ 3.09 µM) | 2 µg/mL (≈ 3.09 µM) | 31 µg/mL (≈ 47.9 µM) | 1 µg/mL (≈ 1.54 µM) | – | – | – | – | – | –
CO[C@H]1[C@@H](OC(=O)OCc2ccccc2)[C@H](OC(=O)OCc2ccccc2)[C@H](OCC23C[C@@H]4[C@H](C)CC[C@H]4C4(C=O)CC2C=C(C(C)C)C34C(=O)O)O[C@@H]1C (some centres undefined) | – | – | – | – | – | – | > 62 µg/mL | > 62 µg/mL | > 62 µg/mL | > 62 µg/mL | 62 µg/mL (≈ 81.5 µM) | > 62 µg/mL
CCCCCC(=O)O[C@H]1[C@H](OC(=O)CCCCC)[C@H](OCC23C[C@@H]4[C@H](C)CC[C@H]4C4(C=O)CC2C=C(C(C)C)C34C(=O)O)O[C@H](C)[C@H]1OC (some centres undefined) | – | – | – | – | – | – | > 125 µg/mL | > 125 µg/mL | 8 µg/mL (≈ 11.6 µM) | > 125 µg/mL | 4 µg/mL (≈ 5.81 µM) | 8 µg/mL (≈ 11.6 µM)
CO[C@@H]1[C@@H](C)O[C@@H](OCC23C[C@@H]4[C@H](C)CC[C@H]4C4(C=O)CC2C=C(C(C)C)C34C(=O)O)C(O)[C@@H]1OC(=O)OCc1ccccc1 (some centres undefined) | 8 µg/mL (≈ 12.8 µM) | 2 µg/mL (≈ 3.19 µM) | 8 µg/mL (≈ 12.8 µM) | 8 µg/mL (≈ 12.8 µM) | > 62 µg/mL | 2 µg/mL (≈ 3.19 µM) | – | – | – | – | – | –
CO[C@H]1C(OC(=O)CCCCCl)C(O)[C@H](OCC23C[C@@H]4[C@H](C)CC[C@H]4C4(C=O)CC2C=C(C(C)C)C34C(=O)O)O[C@@H]1C (single isomer, unassigned) | 2 µg/mL (≈ 3.27 µM) | 0.12 µg/mL (≈ 0.196 µM) | 2 µg/mL (≈ 3.27 µM) | 1 µg/mL (≈ 1.64 µM) | 16 µg/mL (≈ 26.2 µM) | 0.25 µg/mL (≈ 0.409 µM) | – | – | – | – | – | –
CO[C@H]1C(OC(=O)c2ccco2)C(O)[C@H](OCC23C[C@@H]4[C@H](C)CC[C@H]4C4(C=O)CC2C=C(C(C)C)C34C(=O)O)O[C@@H]1C (single isomer, unassigned) | 16 µg/mL (≈ 27.3 µM) | 2 µg/mL (≈ 3.41 µM) | 16 µg/mL (≈ 27.3 µM) | 8 µg/mL (≈ 13.6 µM) | > 125 µg/mL | 4 µg/mL (≈ 6.82 µM) | – | – | – | – | – | –
COCC(=O)OC1C(O)[C@H](OCC23C[C@@H]4[C@H](C)CC[C@H]4C4(C=O)CC2C=C(C(C)C)C34C(=O)O)O[C@H](C)[C@H]1OC (single isomer, unassigned) | > 125 µg/mL | 62 µg/mL (≈ 110 µM) | 125 µg/mL (≈ 221 µM) | > 125 µg/mL | 125 µg/mL (≈ 221 µM) | 16 µg/mL (≈ 28.3 µM) | – | – | – | – | – | –
CCCCCCOC1[C@H](O)[C@H](OCC23C[C@@H]4[C@H](C)CC[C@H]4C4(C=O)CC2C=C(C(C)C)C34C(=O)O)O[C@H](C)[C@H]1OC (single isomer, unassigned) | – | – | – | – | – | – | 0.25 µg/mL (≈ 0.433 µM) | 1 µg/mL (≈ 1.73 µM) | 4 µg/mL (≈ 6.94 µM) | 31 µg/mL (≈ 53.7 µM) | 0.25 µg/mL (≈ 0.433 µM) | 2 µg/mL (≈ 3.47 µM)
COC1C(O)C(O)[C@H](OCC23C[C@@H]4[C@H](C)CC[C@H]4C4(C=O)CC2C=C(C(C)C)C34C(=O)O)O[C@@H]1C (single isomer, unassigned) | 31 µg/mL (≈ 62.9 µM) | 8 µg/mL (≈ 16.2 µM) | 31 µg/mL (≈ 62.9 µM) | 16 µg/mL (≈ 32.5 µM) | > 125 µg/mL | 16 µg/mL (≈ 32.5 µM) | – | – | – | – | – | –
CCCC(=O)OC1C(O)[C@H](OCC23C[C@@H]4[C@H](C)CC[C@H]4C4(C=O)CC2C=C(C(C)C)C34C(=O)O)O[C@H](C)[C@H]1OC (single isomer, unassigned) | 1 µg/mL (≈ 1.78 µM) | 0.25 µg/mL (≈ 0.444 µM) | 2 µg/mL (≈ 3.55 µM) | 2 µg/mL (≈ 3.55 µM) | > 125 µg/mL | 0.5 µg/mL (≈ 0.889 µM) | – | – | – | – | – | –
CCCCCC(=O)O[C@@H]1[C@H](OCC23C[C@@H]4[C@H](C)CC[C@H]4C4(C=O)CC2C=C(C(C)C)C34C(=O)O)O[C@H](C)C(OC)[C@H]1O (single isomer, unassigned) | – | – | – | – | – | – | 31 µg/mL (≈ 52.5 µM) | 62 µg/mL (≈ 105 µM) | 31 µg/mL (≈ 52.5 µM) | 31 µg/mL (≈ 52.5 µM) | 8 µg/mL (≈ 13.5 µM) | 31 µg/mL (≈ 52.5 µM)

Further compounds by falling MIC [1], results first:

MIC [1] | MIC [2] | MIC [3] | MIC [4] | MIC [5] | MIC [6] | MIC [7] | MIC [8] | MIC [9] | MIC [10] | MIC [11] | MIC [12] | Structure (SMILES)
1 µg/mL (≈ 1.54 µM) | 0.25 µg/mL (≈ 0.385 µM) | 0.5 µg/mL (≈ 0.771 µM) | 8 µg/mL (≈ 12.3 µM) | 8 µg/mL (≈ 12.3 µM) | 0.12 µg/mL (≈ 0.185 µM) | – | – | – | – | – | – | CCCCCCCCOC(=O)O[C@H]1C(O)[C@H](OCC23C[C@@H]4[C@H](C)CC[C@H]4C4(C=O)CC2C=C(C(C)C)C34C(=O)O)O[C@H](C)[C@H]1OC (some centres undefined)
1 µg/mL (≈ 1.66 µM) | 0.015 µg/mL (≈ 0.0249 µM) | 0.5 µg/mL (≈ 0.83 µM) | 0.5 µg/mL (≈ 0.83 µM) | 62 µg/mL (≈ 103 µM) | 0.12 µg/mL (≈ 0.199 µM) | – | – | – | – | – | – | CCC/C=C(\C)C(=O)O[C@H]1C(O)[C@H](OCC23C[C@@H]4[C@H](C)CC[C@H]4C4(C=O)CC2C=C(C(C)C)C34C(=O)O)O[C@H](C)[C@H]1OC (some centres undefined)
1 µg/mL (≈ 1.55 µM) | 0.25 µg/mL (≈ 0.386 µM) | 1 µg/mL (≈ 1.55 µM) | 8 µg/mL (≈ 12.4 µM) | 1 µg/mL (≈ 1.55 µM) | 0.25 µg/mL (≈ 0.386 µM) | – | – | – | – | – | – | CCCCCCCCCC(=O)OC1C(O)[C@H](OCC23C[C@@H]4[C@H](C)CC[C@H]4C4(C=O)CC2C=C(C(C)C)C34C(=O)O)O[C@H](C)[C@H]1OC (single isomer, unassigned)
1 µg/mL (≈ 1.68 µM) | 0.12 µg/mL (≈ 0.201 µM) | 1 µg/mL (≈ 1.68 µM) | 0.5 µg/mL (≈ 0.838 µM) | > 125 µg/mL | 0.25 µg/mL (≈ 0.419 µM) | – | – | – | – | – | – | CO[C@H]1C(OC(=O)c2ccccc2)C(O)[C@H](OCC23C[C@@H]4[C@H](C)CC[C@H]4C4(C=O)CC2C=C(C(C)C)C34C(=O)O)O[C@@H]1C (single isomer, unassigned)
0.25 µg/mL (≈ 0.416 µM) | 0.015 µg/mL (≈ 0.025 µM) | 0.03 µg/mL (≈ 0.0499 µM) | 0.06 µg/mL (≈ 0.0999 µM) | 0.25 µg/mL (≈ 0.416 µM) | 0.03 µg/mL (≈ 0.0499 µM) | – | – | – | – | – | – | C/C=C/C=C(\C)C(=O)O[C@H]1C(O)[C@H](OCC23C[C@@H]4[C@H](C)CC[C@H]4C4(C=O)CC2C=C(C(C)C)C34C(=O)O)O[C@H](C)[C@H]1OC (some centres undefined)
0.25 µg/mL (≈ 0.423 µM) | 0.015 µg/mL (≈ 0.0254 µM) | 0.25 µg/mL (≈ 0.423 µM) | 0.03 µg/mL (≈ 0.0508 µM) | 16 µg/mL (≈ 27.1 µM) | 0.01 µg/mL (≈ 0.0169 µM) | – | – | – | – | – | – | CCCCCC(=O)OC1C(O)[C@H](OCC23C[C@@H]4[C@H](C)CC[C@H]4C4(C=O)CC2C=C(C(C)C)C34C(=O)O)O[C@H](C)[C@H]1OC (single isomer, unassigned)
0.12 µg/mL (≈ 0.198 µM) | 0.008 µg/mL (≈ 0.0132 µM) | 0.06 µg/mL (≈ 0.0992 µM) | 0.25 µg/mL (≈ 0.413 µM) | 8 µg/mL (≈ 13.2 µM) | 0.06 µg/mL (≈ 0.0992 µM) | – | – | – | – | – | – | CCCCC(C)C(=O)OC1C(O)[C@H](OCC23C[C@@H]4[C@H](C)CC[C@H]4C4(C=O)CC2C=C(C(C)C)C34C(=O)O)O[C@H](C)[C@H]1OC (single isomer, unassigned)
0.06 µg/mL (≈ 0.097 µM) | < 0.001 µg/mL | 0.03 µg/mL (≈ 0.0485 µM) | 0.06 µg/mL (≈ 0.097 µM) | 0.25 µg/mL (≈ 0.404 µM) | 0.004 µg/mL (≈ 0.00646 µM) | – | – | – | – | – | – | CCCCCCCC(=O)OC1C(O)[C@H](OCC23C[C@@H]4[C@H](C)CC[C@H]4C4(C=O)CC2C=C(C(C)C)C34C(=O)O)O[C@H](C)[C@H]1OC (single isomer, unassigned)
